Measurements: paper PMC12140364, “Meisoindigo Acts as a Molecular Glue to Target PKMYT1 for Degradation in Chronic Myeloid Leukemia Therapy” (Advanced Science, 2025)

Columns and labels:
PKMYT1 = target: T1, PKMYT1 (Homo sapiens, UniProt Q99640); test: enzyme activity assay; assay type: biochemical
T1 sequence (Q99640 1-499): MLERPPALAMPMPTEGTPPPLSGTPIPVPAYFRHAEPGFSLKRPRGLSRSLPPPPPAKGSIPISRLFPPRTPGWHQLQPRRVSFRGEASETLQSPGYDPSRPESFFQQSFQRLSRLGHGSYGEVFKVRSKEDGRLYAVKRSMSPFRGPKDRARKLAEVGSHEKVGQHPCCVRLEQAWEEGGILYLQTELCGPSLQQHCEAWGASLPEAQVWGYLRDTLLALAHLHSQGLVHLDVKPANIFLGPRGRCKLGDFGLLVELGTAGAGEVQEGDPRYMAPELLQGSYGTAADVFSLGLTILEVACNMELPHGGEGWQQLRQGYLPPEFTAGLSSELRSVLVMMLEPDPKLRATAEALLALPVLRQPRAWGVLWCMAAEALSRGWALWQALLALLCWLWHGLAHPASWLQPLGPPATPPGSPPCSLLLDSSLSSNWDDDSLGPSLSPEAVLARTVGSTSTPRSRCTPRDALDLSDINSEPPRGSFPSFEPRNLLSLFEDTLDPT

TRIM25 = target: T2, TRIM25 (Homo sapiens, UniProt Q14258); test: MST; assay type: binding
T2 construct: recombinant TRIM25 (Origene, TP303757)

[1] = target: T3, PKMYT1 (protein kinase, membrane-associated tyrosine/threonine 1) (Homo sapiens, UniProt Q99640); test: MST; LC-MS/MS adduct mapping; CETSA; C301A mutant abolishes binding
T3 construct: residues 75-362, N-terminal 6xHis, E. coli
T3 sequence (Q99640 75-362): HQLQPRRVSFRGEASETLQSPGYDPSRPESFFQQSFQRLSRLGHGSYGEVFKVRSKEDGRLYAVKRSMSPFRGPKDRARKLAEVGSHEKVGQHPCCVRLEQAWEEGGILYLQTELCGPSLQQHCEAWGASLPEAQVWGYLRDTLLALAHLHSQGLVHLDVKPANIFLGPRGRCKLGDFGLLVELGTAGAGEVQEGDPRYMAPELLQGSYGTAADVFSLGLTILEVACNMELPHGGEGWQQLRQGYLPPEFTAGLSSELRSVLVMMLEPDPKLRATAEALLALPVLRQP

[2] = target: T4, TRIM25 protein (Origene, TP303757) (UniProt Q14258 1-630); test: MST; PKMYT1 (75-362) protein labelled with RED-NHS 2nd Generation, 40 nM, assay buffer with 0.05% Tween-20; TRIM25 in 2-fold dilution series; Monolith NT.115; without Mei; n = 3; conditions: both partners purified
T4 construct: TRIM25, E3 ubiquitin ligase; also called recombinant TRIM25; E3 ligase TRIM25; source: bought: Origene (TP303757)
T4 sequence (Q14258 whole entry): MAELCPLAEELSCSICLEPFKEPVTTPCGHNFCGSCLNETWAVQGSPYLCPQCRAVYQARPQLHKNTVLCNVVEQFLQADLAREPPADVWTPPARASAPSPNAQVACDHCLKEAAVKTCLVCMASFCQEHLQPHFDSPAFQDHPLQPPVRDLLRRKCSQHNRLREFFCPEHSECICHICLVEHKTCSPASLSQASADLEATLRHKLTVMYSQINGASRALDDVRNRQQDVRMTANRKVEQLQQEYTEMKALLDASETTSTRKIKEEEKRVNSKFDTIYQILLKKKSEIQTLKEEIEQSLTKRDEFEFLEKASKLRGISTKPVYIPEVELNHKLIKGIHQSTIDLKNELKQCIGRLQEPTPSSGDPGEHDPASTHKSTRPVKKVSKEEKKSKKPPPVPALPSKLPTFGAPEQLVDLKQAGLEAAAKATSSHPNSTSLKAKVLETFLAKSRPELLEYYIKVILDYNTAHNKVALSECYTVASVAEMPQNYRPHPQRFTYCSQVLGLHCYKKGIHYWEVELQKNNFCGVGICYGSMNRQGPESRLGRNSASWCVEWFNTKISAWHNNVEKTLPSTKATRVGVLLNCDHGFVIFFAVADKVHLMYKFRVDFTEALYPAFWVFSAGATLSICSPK

T2 sequence (Q14258 whole entry): as above

Molecule: CCN(CC)CCOc1ccc(Nc2ncc3cc(-c4c(Cl)cccc4Cl)c(=O)n(C)c3n2)cc1 [PD0166285]
- IC50 (PKMYT1): 16.4 nM

Molecule: CN1C(=O)/C(=C2/C(=O)Nc3ccccc32)c2ccccc21 [Mei, Meisoindigo]
- Kd (TRIM25): 220 ± 100 nM
- Kd [1]: 2180 ± 960 nM

B1: recombinant PKMYT1 (75-362) (domain or fragment, human, UniProt Q99640 75-362, looked up)
chain: HQLQPRRVSFRGEASETLQSPGYDPSRPESFFQQSFQRLSRLGHGSYGEVFKVRSKEDGRLYAVKRSMSPFRGPKDRARKLAEVGSHEKVGQHPCCVRLEQAWEEGGILYLQTELCGPSLQQHCEAWGASLPEAQVWGYLRDTLLALAHLHSQGLVHLDVKPANIFLGPRGRCKLGDFGLLVELGTAGAGEVQEGDPRYMAPELLQGSYGTAADVFSLGLTILEVACNMELPHGGEGWQQLRQGYLPPEFTAGLSSELRSVLVMMLEPDPKLRATAEALLALPVLRQP
modifications: labelled with RED-NHS 2nd Generation dye for MST
notes: No cleavage of the His tag is described; also called protein kinase, membrane-associated tyrosine/threonine 1; source: E. coli BL21(DE3), purified (Ni-resin)
- Kd [2]: 2940 nM
